Activity calls are given as the source filed them. The rule behind the calls is not given here.
What was measured:
[1] = tested on: Mus musculus; assay: Inhibition of CXCL1-induced neutrophil recruitment in Swiss mouse at 100 mg/kg, sc administered pre-inflammatory stimulus after 6 hrs by Newbauer chamber using Romanowsky stain; type: functional, organism-based; set-up: dose 100 mg/kg
[2] = tested on: Mus musculus; assay: Inhibition of CXCL1-induced neutrophil recruitment in Swiss mouse at 300 mg/kg, sc administered pre-inflammatory stimulus after 6 hrs by Newbauer chamber using Romanowsky stain; type: functional, organism-based; set-up: dose 300 mg/kg
[3] = tested on: Mus musculus; assay: Inhibition of CXCL5-induced neutrophil recruitment in Swiss mouse at 100 mg/kg, sc administered pre-inflammatory stimulus after 6 hrs by Newbauer chamber using Romanowsky stain; type: functional, organism-based; set-up: dose 100 mg/kg
[4] = tested on: Mus musculus; assay: Inhibition of CXCL5-induced neutrophil recruitment in Swiss mouse at 300 mg/kg, sc administered pre-inflammatory stimulus after 6 hrs by Newbauer chamber using Romanowsky stain; type: functional, organism-based; set-up: dose 300 mg/kg
[5] = tested on: Mus musculus; assay: Inhibition of LTB4-induced neutrophil recruitment in Swiss mouse at 100 mg/kg, sc administered pre-inflammatory stimulus after 6 hrs by Newbauer chamber using Romanowsky stain; type: functional, organism-based; set-up: dose 100 mg/kg
[6] = tested on: Mus musculus; assay: Inhibition of LTB4-induced neutrophil recruitment in Swiss mouse at 300 mg/kg, sc administered pre-inflammatory stimulus after 6 hrs by Newbauer chamber using Romanowsky stain; type: functional, organism-based; set-up: dose 300 mg/kg
[7] = tested on: Mus musculus; assay: Inhibition of fMLP-induced neutrophil recruitment in Swiss mouse at 100 mg/kg, sc administered pre-inflammatory stimulus after 6 hrs by Newbauer chamber using Romanowsky stain; type: functional, organism-based; set-up: dose 100 mg/kg
[8] = tested on: Mus musculus; assay: Inhibition of fMLP-induced neutrophil recruitment in Swiss mouse at 300 mg/kg, sc administered pre-inflammatory stimulus after 6 hrs by Newbauer chamber using Romanowsky stain; type: functional, organism-based; set-up: dose 300 mg/kg
[9] = tested on: Mus musculus; assay: Inhibition of CXCL1-induced neutrophil recruitment in Swiss mouse at 30 mg/kg, sc administered pre-inflammatory stimulus after 6 hrs by Newbauer chamber using Romanowsky stain; type: functional, organism-based; set-up: dose 30 mg/kg
[10] = tested on: Mus musculus; assay: Inhibition of CXCL5-induced neutrophil recruitment in Swiss mouse at 30 mg/kg, sc administered pre-inflammatory stimulus after 6 hrs by Newbauer chamber using Romanowsky stain; type: functional, organism-based; set-up: dose 30 mg/kg
[11] = tested on: Mus musculus; assay: Inhibition of LTB4-induced neutrophil recruitment in Swiss mouse at 30 mg/kg, sc administered pre-inflammatory stimulus after 6 hrs by Newbauer chamber using Romanowsky stain; type: functional, organism-based; set-up: dose 30 mg/kg
[12] = tested on: Mus musculus; assay: Inhibition of fMLP-induced neutrophil recruitment in Swiss mouse at 30 mg/kg, sc administered pre-inflammatory stimulus after 6 hrs by Newbauer chamber using Romanowsky stain; type: functional, organism-based; set-up: dose 30 mg/kg
[13] = tested on: Neutrophil; assay: Antiinflammatory activity in human neutrophil assessed as inhibition of CXCL8-induced neutrophil chemoattraction 30 nM after 2 hrs by Boyden chamber v; type: functional, cell-based
[14] = tested on: Neutrophil; assay: Antiinflammatory activity in human neutrophil assessed as inhibition of CXCL8-induced neutrophil chemoattraction 100 nM after 2 hrs by Boyden chamber v; type: functional, cell-based
[15] = tested on: Neutrophil; assay: Antiinflammatory activity in human neutrophil assessed as inhibition of LTB4-induced neutrophil chemoattraction 30 nM after 2 hrs by Boyden chamber v; type: functional, cell-based
[16] = tested on: Neutrophil; assay: Antiinflammatory activity in human neutrophil assessed as inhibition of LTB4-induced neutrophil chemoattraction 100 nM after 2 hrs by Boyden chamber v; type: functional, cell-based
[17] = tested on: Neutrophil; assay: Antiinflammatory activity in human neutrophil assessed as inhibition of fMLP-induced neutrophil chemoattraction 30 nM after 2 hrs by Boyden chamber v; type: functional, cell-based
[18] = tested on: Neutrophil; assay: Antiinflammatory activity in human neutrophil assessed as inhibition of fMLP-induced neutrophil chemoattraction 100 nM after 2 hrs by Boyden chamber v; type: functional, cell-based
[19] = tested on: Neutrophil; assay: Antiinflammatory activity in human neutrophil assessed as inhibition of CXCL8-induced neutrophil chemoattraction 10 nM after 2 hrs by Boyden chamber v; type: functional, cell-based
[20] = tested on: Neutrophil; assay: Antiinflammatory activity in human neutrophil assessed as inhibition of LTB4-induced neutrophil chemoattraction 10 nM after 2 hrs by Boyden chamber v; type: functional, cell-based
[21] = tested on: Neutrophil; assay: Antiinflammatory activity in human neutrophil assessed as inhibition of fMLP-induced neutrophil chemoattraction 10 nM after 2 hrs by Boyden chamber v; type: functional, cell-based
[22] = tested on: Neutrophil; assay: Antiinflammatory activity in human neutrophil assessed as inhibition of CXCL8-induced neutrophil chemoattraction 300 to 1000 nM after 2 hrs by Boyden chamber v; type: functional, cell-based
[23] = tested on: Neutrophil; assay: Antiinflammatory activity in human neutrophil assessed as inhibition of fMLP-induced neutrophil chemoattraction 300 to 1000 nM after 2 hrs by Boyden chamber v; type: functional, cell-based
[24] = tested on: Neutrophil; assay: Antiinflammatory activity in human neutrophil assessed as inhibition of LTB4-induced neutrophil chemoattraction 300 to 1000 nM after 2 hrs by Boyden chamber v; type: functional, cell-based
[25] = tested on: Neutrophil; assay: Inhibition of CXCR1 protein expression in human neutrophil at 100 nM after 30 mins by flow cytometry; type: functional, cell-based
[26] = tested on: Neutrophil; assay: Inhibition of CXCR2 protein expression in human neutrophil at 100 nM after 30 mins by flow cytometry; type: functional, cell-based
[27] = tested on: Neutrophil; assay: Inhibition of BLT1 protein expression in human neutrophil at 100 nM after 30 mins by flow cytometry; type: functional, cell-based
[28] = tested on: Neutrophil; assay: Inhibition of FLPR1 protein expression in human neutrophil at 100 nM after 30 mins by flow cytometry; type: functional, cell-based
[29] = tested on: Neutrophil; assay: Inhibition of CXCL8-induced actin polymerization in human neutrophil at 100 nM after 30 mins by DAPI staining based immunofluorescence; type: functional, cell-based
[30] = tested on: Neutrophil; assay: Inhibition of LTB4-induced actin polymerization in human neutrophil at 100 nM after 30 mins by DAPI staining based immunofluorescence; type: functional, cell-based
[31] = tested on: Neutrophil; assay: Inhibition of fMLP-induced actin polymerization in human neutrophil at 100 nM after 30 mins by DAPI staining based immunofluorescence; type: functional, cell-based

**Q.** Which inhibition [1] does the source give for `O=c1c(O)c(-c2ccc(O)c(O)c2)oc2cc(O)cc(O)c12` here?
**A.** Its inhibition is “Active”.

**Q.** And the inhibition [2]?
**A.** The inhibition was “Active”.

**Q.** And the inhibition [3]?
**A.** Its inhibition is “Active”.

**Q.** And the inhibition [4]?
**A.** Its inhibition is “Active”.

**Q.** What about the inhibition [5] of the same compound?
**A.** Its inhibition is “Active”.

**Q.** And the inhibition [6]?
**A.** Its inhibition is “Active”.

**Q.** And the inhibition [7]?
**A.** The inhibition was “Active”.

**Q.** What about the inhibition [8] of the same compound?
**A.** The inhibition was “Active”.

**Q.** What about the inhibition [9] of the same compound?
**A.** The inhibition was “inactive”.

**Q.** And the inhibition [10]?
**A.** The inhibition was “inactive”.

**Q.** And the inhibition [11]?
**A.** Its inhibition is “inactive”.

**Q.** What about the inhibition [12] of the same compound?
**A.** The inhibition was “Active”.

**Q.** What about the inhibition [13] of the same compound?
**A.** Its inhibition is “Active”.

**Q.** And the inhibition [14]?
**A.** The inhibition was “Active”.

**Q.** What about the inhibition [15] of the same compound?
**A.** Its inhibition is “Active”.

**Q.** What about the inhibition [16] of the same compound?
**A.** Its inhibition is “Active”.

**Q.** What about the inhibition [17] of the same compound?
**A.** The inhibition was “Active”.

**Q.** What about the inhibition [18] of the same compound?
**A.** The inhibition was “Active”.

**Q.** And the inhibition [19]?
**A.** The inhibition was “Active”.

**Q.** And the inhibition [20]?
**A.** The inhibition was “Active”.

**Q.** What about the inhibition [21] of the same compound?
**A.** Its inhibition is “Active”.

**Q.** And the inhibition [22]?
**A.** Its inhibition is “Active”.

**Q.** What about the inhibition [23] of the same compound?
**A.** The inhibition was “Active”.

**Q.** And the inhibition [24]?
**A.** Its inhibition is “Active”.

**Q.** And the inhibition [25]?
**A.** The inhibition was “inactive”.

**Q.** What about the inhibition [26] of the same compound?
**A.** Its inhibition is “inactive”.

**Q.** And the inhibition [27]?
**A.** The inhibition was “inactive”.

**Q.** What about the inhibition [28] of the same compound?
**A.** Its inhibition is “inactive”.

**Q.** What about the inhibition [29] of the same compound?
**A.** Its inhibition is “Active”.

**Q.** What about the inhibition [30] of the same compound?
**A.** The inhibition was “Active”.

**Q.** What about the inhibition [31] of the same compound?
**A.** Its inhibition is “Active”.
